Data reported in US7820678B2, “Sodium channel blockers” (Parion Sciences, Inc., priority 2003, dated 2010).

- melting point: 174 to 176 °C (dec.)
SMILES: CS(=O)(=O)N(c1ccc(CCCCNC(=N)NC(=O)c2nc(Cl)c(N)nc2N)cc1)S(C)(=O)=O [Example 4, N-(3,5-Diamino-6-chloropyrazine-2-carbonyl)-N′-[4-(4-bis(methanesulfonyl)aminophenyl)butyl]guanidine]
